From US8143243B2, “Compounds for the treatment of hepatitis C” (Bristol-Myers Squibb Company, priority 2007, dated 2012)
pEC50, pIC50: −log10 of the molar value. Read-outs that look alike come from different tables or passages of the source.

Assays:
HCV replicon cells = test: HCV replicon FRET / luciferase assay; format: cell-based; settings: Hepatitis C virus
Procedure, shortened: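 Replicon cells (with or without Renilla luciferase reporter) incubated with titrated compounds at 37 °C; Alamar blue read for cytotoxicity first. NS3 protease activity read kinetically with 20 μM EDANS/DABCYL FRET peptide in lysis reagent plus 150 mM NaCl (ex 340/em 490), or by Dual-Glo luciferase. EC50 = 50% signal reduction after protease-inhibitor background subtraction.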

HCV NS5B = target: T1, HCV NS5B (Hepatitis C virus genotype 1b, UniProt Q9WMX2); test: HCV NS5B RdRp enzyme assay (standard / modified); format: biochemical
T1 construct: The protein was expressed with an 18 amino acid C-terminal truncation to enhance the solubility; made in house; host or cells: E. coli BL21 (DE3)
Procedure, shortened: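 NS5B genotype 1b, 18-aa C-terminal truncation, E. coli-expressed; polyA template with biotinylated oligo-dT12 primer, 3H-UTP 0.29 μM, 30° C, SPA read-out in 20 mM Hepes pH 7.5, 2% DMSO. Standard: 28 nM enzyme, 6 nM template, 180 nM primer, 60 min; modified: 14 nM enzyme, 0.2 nM template, 20 nM bead-precaptured primer, 4 h. IC50 from seven concentrations.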

[1] = HCV replicon cells, FRET or luciferase readout, read-out: EC50
[2] = HCV RdRp genotype 1b enzyme, read-out: IC50

T1 sequence (Q9WMX2 2420-2992): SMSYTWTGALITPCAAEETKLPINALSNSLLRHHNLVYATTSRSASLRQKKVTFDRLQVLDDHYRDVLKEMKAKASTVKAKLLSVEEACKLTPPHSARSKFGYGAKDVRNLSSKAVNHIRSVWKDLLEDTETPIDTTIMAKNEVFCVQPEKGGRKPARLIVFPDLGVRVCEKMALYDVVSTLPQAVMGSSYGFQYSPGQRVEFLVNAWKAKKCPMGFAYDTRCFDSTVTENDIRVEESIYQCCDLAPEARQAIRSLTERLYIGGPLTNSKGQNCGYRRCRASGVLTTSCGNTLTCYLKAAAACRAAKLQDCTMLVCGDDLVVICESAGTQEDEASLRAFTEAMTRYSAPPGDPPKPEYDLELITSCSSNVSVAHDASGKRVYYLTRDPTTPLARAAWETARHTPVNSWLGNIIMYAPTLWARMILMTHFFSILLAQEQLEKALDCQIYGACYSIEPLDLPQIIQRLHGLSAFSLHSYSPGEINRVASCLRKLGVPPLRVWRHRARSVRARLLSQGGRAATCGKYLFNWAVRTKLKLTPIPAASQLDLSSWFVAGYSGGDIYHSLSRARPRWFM

SMILES	pEC50 (HCV replicon cells)	pIC50 (HCV NS5B)	pEC50 (HCV replicon cells; [1])	pIC50 (HCV NS5B; [2])
COc1ccc2c(c1)C=C(c1c(C(=O)N3C4COCC3COC4)cnn1C)Cn1c-2c(C2CCCCC2)c2ccc(C(=O)NS(=O)(=O)C3CCC3)cc21	6.30 to 9.00	6.30 to 9.00		
COc1ccc2c(c1)C=C(c1c(C(=O)N3C4CC3CN(C)C4)cnn1C(C)C)Cn1c-2c(C2CCCCC2)c2ccc(C(=O)NS(=O)(=O)C(C)C)cc21			6.30 to 9.00	6.30 to 9.00
COc1ccc2c(c1)C=C(c1c(C(=O)N3CCOCC3)cnn1C)Cn1c-2c(C2CCCCC2)c2ccc(C(=O)O)cc21			6.30 to 9.00	6.30 to 9.00
COc1ccc2c(c1)C=C(c1c(C(=O)N3CCN4CCCC4C3)cnn1C)Cn1c-2c(C2CCCCC2)c2ccc(C(=O)NS(=O)(=O)N3CCOCC3)cc21 (stereo not drawn)			6.30 to 9.00	6.30 to 9.00
CCN1C[C@@H]2C[C@H]1CN2C(=O)c1cnn(C)c1C1=Cc2cc(OC)ccc2-c2c(C3CCCCC3)c3ccc(C(=O)NS(=O)(=O)N4CCOCC4)cc3n2C1			6.30 to 9.00	6.30 to 9.00
COc1ccc2c(c1)C=C(c1c(C(=O)N3C[C@@H](C)N(C)[C@@H](C)C3)cnn1C(C)(C)C)Cn1c-2c(C2CCCCC2)c2ccc(C(=O)NS(=O)(=O)C(C)C)cc21			6.30 to 9.00	6.30 to 9.00
COc1ccc2c(c1)C=C(c1c(C(=O)N3C[C@@H](C)N(C)[C@@H](C)C3)c(C)nn1C(C)C)Cn1c-2c(C2CCCCC2)c2ccc(C(=O)NS(=O)(=O)C(C)C)cc21			6.30 to 9.00	6.30 to 9.00
COc1ccc2c(c1)C=C(c1c(C(=O)N3C4CCC3COC4)cnn1CC(F)(F)F)Cn1c-2c(C2CCCCC2)c2ccc(C(=O)NS(=O)(=O)C(C)C)cc21	6.30 to 9.00	6.30 to 9.00		
COc1ccc2c(c1)C=C(c1c(C(=O)N3CCCC(N(C)C)C3)cnn1C)Cn1c-2c(C2CCCCC2)c2ccc(C(=O)NS(=O)(=O)N3CCOCC3)cc21 (stereo not drawn)			6.30 to 9.00	6.30 to 9.00
COC[C@@H]1CN(C(=O)c2cnn(C)c2C2=Cc3cc(OC)ccc3-c3c(C4CCCCC4)c4ccc(C(=O)NS(=O)(=O)C(C)C)cc4n3C2)CCO1			6.30 to 9.00	6.30 to 9.00
COc1ccc2c(c1)C=C(c1c(C(=O)N3C[C@@H](C)N(C)[C@@H](C)C3)cnn1CC(F)(F)F)Cn1c-2c(C2CCCCC2)c2ccc(C(=O)NS(=O)(=O)C(C)C)cc21			6.30 to 9.00	6.30 to 9.00
COc1ccc2c(c1)C=C(c1c(C(=O)N3CCOCC3)cnn1C)Cn1c-2c(C2CCCCC2)c2ccc(C(=O)NS(=O)(=O)N3CCOCC3)cc21			6.30 to 9.00	> 7.70
CCN1C[C@@H]2C[C@H]1CN2C(=O)c1cnn(C)c1C1=Cc2cc(OC)ccc2-c2c(C3CCCCC3)c3ccc(C(=O)NS(=O)(=O)C4CCC4)cc3n2C1			6.30 to 9.00	6.30 to 9.00
CCN1C[C@@H]2CC1CN2C(=O)c1cnn(C(C)C)c1C1=Cc2cc(OC)ccc2-c2c(C3CCCCC3)c3ccc(C(=O)NS(=O)(=O)C(C)C)cc3n2C1			6.30 to 9.00	6.30 to 9.00
COc1ccc2c(c1)C=C(c1c(C(=O)N(C)CCN(C)C)cnn1C)Cn1c-2c(C2CCCCC2)c2ccc(C(=O)NS(=O)(=O)N3CCOCC3)cc21			6.30 to 9.00	6.30 to 9.00
COc1ccc2c(c1)C=C(c1c(C(=O)N3CCC(N(C)C)C3)cnn1C)Cn1c-2c(C2CCCCC2)c2ccc(C(=O)NS(=O)(=O)N3CCOCC3)cc21 (stereo not drawn)			6.30 to 9.00	6.30 to 9.00
COc1ccc2c(c1)C=C(c1c(C(=O)N3[C@@H]4CC[C@H]3C[C@@](C)(O)C4)cnn1C(C)C)Cn1c-2c(C2CCCCC2)c2ccc(C(=O)NS(=O)(=O)C(C)C)cc21	6.30 to 9.00	6.30 to 9.00		
CCOC(=O)c1cc[nH]c1C1=Cc2cc(OC)ccc2-c2c(C3CCCCC3)c3ccc(C(=O)NS(=O)(=O)C(C)C)cc3n2C1			6.30 to 9.00	6.30 to 9.00
COc1ccc2c(c1)C=C(c1c(C(=O)N3C4CCC3CN(C)C4)cnn1C)Cn1c-2c(C2CCCCC2)c2ccc(C(=O)NS(=O)(=O)C3CCCC3)cc21	6.30 to 9.00	6.30 to 9.00		
COc1ccc2c(c1)C=C(c1c(C(=O)N3C4COCC3COC4)cnn1C(C)C)Cn1c-2c(C2CCCCC2)c2ccc(C(=O)NS(=O)(=O)C(C)C)cc21	6.30 to 9.00	6.30 to 9.00		
CCn1nc(C)c(C(=O)N2CC3CCC(C2)O3)c1C1=Cc2cc(OC)ccc2-c2c(C3CCCCC3)c3ccc(C(=O)NS(=O)(=O)C(C)C)cc3n2C1			6.30 to 9.00	6.30 to 9.00
CCCN1CCN(C(=O)c2ccn(C(C)C)c2C2=Cc3cc(OC)ccc3-c3c(C4CCCCC4)c4ccc(C(=O)NS(=O)(=O)C(C)C)cc4n3C2)CC1			6.30 to 9.00	6.30 to 9.00
CCOC(=O)c1cnn(C)c1C1=Cc2cc(OC)ccc2-c2c(C3CCCCC3)c3ccc(C(=O)OC(C)(C)C)cc3n2C1			6.30 to 9.00	< 7.40
CCC(C)S(=O)(=O)NC(=O)c1ccc2c(C3CCCCC3)c3n(c2c1)CC(c1c(C(=O)N2C4CCCC2COC4)cnn1C)=Cc1cc(OC)ccc1-3 (stereo not drawn)	6.30 to 9.00	6.30 to 9.00		

SMILES	pEC50 (HCV replicon cells)	pIC50 (HCV NS5B)	pEC50 (HCV replicon cells; [1])	pIC50 (HCV NS5B; [2])
COc1ccc2c(c1)C=C(c1c(C(=O)N3CCC(N4CCCC4)CC3)cnn1C)Cn1c-2c(C2CCCCC2)c2ccc(C(=O)NS(=O)(=O)C(C)C)cc21			6.30 to 9.00	6.30 to 9.00
COc1ccc2c(c1)C=C(c1c(C(=O)N3C4CCCC3COC4)cnn1C)Cn1c-2c(C2CCCCC2)c2ccc(C(=O)NS(=O)(=O)C3CCCC3)cc21	6.30 to 9.00	6.30 to 9.00		
COc1ccc2c(c1)C=C(c1c(C(=O)N3CCOC(CN(C)C)C3)cnn1C)Cn1c-2c(C2CCCCC2)c2ccc(C(=O)NS(=O)(=O)N3CCOCC3)cc21 (stereo not drawn)			6.30 to 9.00	6.30 to 9.00
COc1ccc2c(c1)C=C(c1c(C(=O)N3CC4CCC(C3)N4C)cnn1C)Cn1c-2c(C2CCCCC2)c2ccc(C(=O)NS(=O)(=O)C(C)C)cc21	6.30 to 9.00	6.30 to 9.00		
COc1ccc2c(c1)C=C(c1c(C(=O)N3C[C@@H](C)N(C)[C@@H](C)C3)cnn1C)Cn1c-2c(C2CCCCC2)c2ccc(C(=O)NS(=O)(=O)C(C)C)cc21			6.30 to 9.00	6.30 to 9.00
COc1ccc2c(c1)C=C(c1c(C(=O)N3C4CCC3CN(C)C4)cnn1C)Cn1c-2c(C2CCCCC2)c2ccc(C(=O)NS(=O)(=O)CC(C)C)cc21	6.30 to 9.00	6.30 to 9.00		
COc1ccc2c(c1)C=C(c1c(C(=O)N3CCOCC3)ccn1C(C)C)Cn1c-2c(C2CCCCC2)c2ccc(C(=O)NS(=O)(=O)C(C)C)cc21			6.30 to 9.00	6.30 to 9.00
COCCN(C(=O)c1cnn(C)c1C1=Cc2cc(OC)ccc2-c2c(C3CCCCC3)c3ccc(C(=O)NS(=O)(=O)C(C)C)cc3n2C1)C(C)C			6.30 to 9.00	6.30 to 9.00
COc1ccc2c(c1)C=C(c1c(C(=O)N3CC4CCC(C3)O4)cnn1C(C)C)Cn1c-2c(C2CCCCC2)c2ccc(C(=O)NS(=O)(=O)C(C)C)cc21			6.30 to 9.00	6.30 to 9.00
COc1ccc2c(c1)C=C(c1c(C(=O)N3C[C@H]4CC[C@@H](C3)N4C)cnn1C(C)C)Cn1c-2c(C2CCCCC2)c2ccc(C(=O)NS(=O)(=O)CC(C)C)cc21	6.30 to 9.00	6.30 to 9.00		
COc1ccc2c(c1)C=C(c1c(C(=O)N3CCN4CCCC4C3)cnn1C)Cn1c-2c(C2CCCCC2)c2ccc(C(=O)NS(=O)(=O)C3CCC3)cc21 (stereo not drawn)			6.30 to 9.00	6.30 to 9.00
CCn1nc(C)c(C(=O)OC)c1C1=Cc2cc(OC)ccc2-c2c(C3CCCCC3)c3ccc(C(=O)O)cc3n2C1			< 6.30	< 6.30
COc1ccc2c(c1)C=C(c1c(C(=O)N3CC(C)N(C)C(C)C3)cnn1C(C)C)Cn1c-2c(C2CCCCC2)c2ccc(C(=O)NS(=O)(=O)C(C)C)cc21 (stereo not drawn)			6.30 to 9.00	6.30 to 9.00
COc1ccc2c(c1)C=C(c1c(C(=O)N3CCOCC3)cnn1C)Cn1c-2c(C2CCCCC2)c2ccc(C(=O)NS(=O)(=O)CC(C)C)cc21			6.30 to 9.00	6.30 to 9.00
CCn1nc(C)c(C2=Cc3cc(OC)ccc3-c3c(C4CCCCC4)c4ccc(C(=O)NS(=O)(=O)C(C)C)cc4n3C2)c1C(=O)N1C[C@@H](C)O[C@@H](C)C1			6.30 to 9.00	6.30 to 9.00
COc1ccc2c(c1)C=C(c1c(C(=O)N3CCOCC3)cnn1C)Cn1c-2c(C2CCCCC2)c2ccc(C(=O)NS(=O)(=O)N(C)C)cc21			6.30 to 9.00	6.30 to 9.00
COc1ccc2c(c1)C=C(c1c(C(=O)N3C[C@@H](C)O[C@@H](C)C3)cnn1C)Cn1c-2c(C2CCCCC2)c2ccc(C(=O)NS(=O)(=O)C(C)C)cc21			6.30 to 9.00	6.30 to 9.00
COc1ccc2c(c1)C=C(c1c(C(=O)N3CCC(N4CCCC4)CC3)cnn1C)Cn1c-2c(C2CCCCC2)c2ccc(C(=O)NS(=O)(=O)N3CCOCC3)cc21			< 6.30	6.30 to 9.00
COc1ccc2c(c1)C=C(c1c(C(=O)N3CCN4CCCC4C3)cnn1C)Cn1c-2c(C2CCCCC2)c2ccc(C(=O)NS(=O)(=O)C(C)C)cc21 (stereo not drawn)			6.30 to 9.00	6.30 to 9.00
CCn1ncc(C(=O)N2CCOCC2)c1C1=Cc2cc(OC)ccc2-c2c(C3CCCCC3)c3ccc(C(=O)NS(=O)(=O)N4CCCC4)cc3n2C1			6.30 to 9.00	6.30 to 9.00
CCN1C[C@@H]2C[C@H]1CN2C(=O)c1cnn(C)c1C1=Cc2cc(OC)ccc2-c2c(C3CCCCC3)c3ccc(C(=O)NS(=O)(=O)C(C)C)cc3n2C1			6.30 to 9.00	6.30 to 9.00
COc1ccc2c(c1)C=C(c1c(C(=O)N(C)C)cnn1C)Cn1c-2c(C2CCCCC2)c2ccc(C(=O)NS(=O)(=O)C(C)C)cc21			6.30 to 9.00	6.30 to 9.00
CCC(C)S(=O)(=O)NC(=O)c1ccc2c(C3CCCCC3)c3n(c2c1)CC(c1c(C(=O)N2CC(C)N(C)C(C)C2)cnn1C)=Cc1cc(OC)ccc1-3 (stereo not drawn)			6.30 to 9.00	6.30 to 9.00
COc1ccc2c(c1)C=C(c1c(C(=O)N3[C@@H]4CC[C@H]3CN(C)C4)cnn1C)Cn1c-2c(C2CCCCC2)c2ccc(C(=O)NS(=O)(=O)N3CCOCC3)cc21	6.30 to 9.00	6.30 to 9.00		
